Assay results as given in article PMC5874590, “The Occurrence of Flavonoids and Related Compounds in Cedrus brevifolia A. Henry ex Elwes & A. Henry Needles. Inhibitory Potencies on Lipoxygenase, Linoleic Acid Lipid Peroxidation and Antioxidant Activity” (Plants, 2017).

target: T1, soybean lipoxygenase (LOX) (Glycine max, UniProt P08170); experiment: UV absorbance at […] nm; type: biochemical; conditions: room temperature; product 13-hydroperoxylinoleate
T1 construct: gene LOX1.1; commercial native soybean enzyme (Sigma), catalogue number or type not given; 13-hydroperoxylinoleate product points to LOX-1
T1 sequence (P08170 1-839): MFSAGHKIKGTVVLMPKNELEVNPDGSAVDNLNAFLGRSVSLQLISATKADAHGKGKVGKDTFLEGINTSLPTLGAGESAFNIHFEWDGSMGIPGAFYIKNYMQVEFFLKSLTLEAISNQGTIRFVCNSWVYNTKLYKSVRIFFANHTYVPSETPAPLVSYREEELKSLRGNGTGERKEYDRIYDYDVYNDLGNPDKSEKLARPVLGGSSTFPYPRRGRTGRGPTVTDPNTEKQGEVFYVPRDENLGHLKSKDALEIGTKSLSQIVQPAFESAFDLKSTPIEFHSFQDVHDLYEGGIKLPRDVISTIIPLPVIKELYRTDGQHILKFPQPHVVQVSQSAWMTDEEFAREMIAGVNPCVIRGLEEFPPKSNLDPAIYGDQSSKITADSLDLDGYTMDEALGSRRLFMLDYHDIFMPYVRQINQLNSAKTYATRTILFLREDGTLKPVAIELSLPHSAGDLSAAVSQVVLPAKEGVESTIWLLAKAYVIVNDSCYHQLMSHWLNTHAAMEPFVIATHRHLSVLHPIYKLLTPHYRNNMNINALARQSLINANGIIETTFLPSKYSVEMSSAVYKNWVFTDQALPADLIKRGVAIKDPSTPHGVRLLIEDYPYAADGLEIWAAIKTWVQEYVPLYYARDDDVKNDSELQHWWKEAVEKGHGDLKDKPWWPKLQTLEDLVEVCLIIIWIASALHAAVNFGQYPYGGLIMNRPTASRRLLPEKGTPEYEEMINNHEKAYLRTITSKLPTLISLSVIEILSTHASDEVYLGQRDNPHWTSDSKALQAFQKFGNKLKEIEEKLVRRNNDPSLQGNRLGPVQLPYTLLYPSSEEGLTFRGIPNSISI

Row | Structure (SMILES) | UV absorbance at 234 nm
1 | CCCCC/C=C\C/C=C\CCCCCCCC(=O)O [sodium linoleate] | The transformation of sodium linoleate to 13-hydroperoxylinoleate sodium was measured spectrophotometrically

target: T1, soybean lipoxygenase (LOX); experiment: UV absorbance at […] nm; type: biochemical; conditions: 0.1 mM compound; sodium linoleate; room temperature

Row | Structure (SMILES) | % LOX ± SD Inhbt @ (0.1 mM)
2 | O=C(O[C@@H]1O[C@H](CO)[C@@H](O)[C@H](O)[C@H]1O)c1ccccc1 [compound 5, benzoate glucoside] | 29 ± 1.1%
3 | O=C(O)/C=C/c1ccc(O)cc1 [compound 13, p-coumaric acid] | 18 ± 0.6%
4 | O=C(O)/C=C/c1ccc(O[C@@H]2O[C@H](CO)[C@@H](O)[C@H](O)[C@H]2O)cc1 [compound 14, 4-O-β-D-glucopyranyl trans-p-coumaric acid] | 100 ± 2.5%
5 | CC1=CC(=O)CC(C)(C)[C@@]1(O)/C=C/C(C)=C\CO[C@@H]1O[C@H](CO)[C@@H](O)[C@H](O)[C@H]1O [compound 16, abscisic alcohol glucoside] | 25±1.2%
6 | C[C@@H]1O[C@@H](OC[C@H]2O[C@@H](Oc3c(-c4ccc(O)cc4)oc4cc(O)cc(O)c4c3=O)[C@H](O)[C@@H](O)[C@@H]2O)[C@H](O)[C@H](O)[C@H]1O [compound 17, kaempferol-3-O-β-rutinoside] | 46 ± 1.0%
7 | O=C(/C=C/c1ccc(O)cc1)OC[C@H]1O[C@@H](Oc2c(-c3ccc(O)cc3)oc3cc(O)cc(O)c3c2=O)[C@H](O)[C@@H](O)[C@@H]1O [compound 19, tiliroside] | 8 ± 0.3%
